# From patent US11524944B2, “2-phenylpyrimidine-4-carboxamides as AHR inhibitors” (Bayer Aktiengesellschaft, priority 2017, dated 2022)
# Values joined by “and” are separate entries in the source; they are usually repeats but may differ in a detail not shown here. Equal values may be shown once.
# Assays:
# [1] = biological target: T1, Mouse AhR (Mus musculus, UniProt P30561); test: Transactivation assay in mouse cell line (in vitro assay 2): antagonism; format: cell-based; details: Hepa 1c1c7 cells, AHR inducible firefly luciferase reporter (DRE), 200 μM kynurenic acid, 20 hours
# T1 sequence (P30561 1-848 P471L/N533S/M589L): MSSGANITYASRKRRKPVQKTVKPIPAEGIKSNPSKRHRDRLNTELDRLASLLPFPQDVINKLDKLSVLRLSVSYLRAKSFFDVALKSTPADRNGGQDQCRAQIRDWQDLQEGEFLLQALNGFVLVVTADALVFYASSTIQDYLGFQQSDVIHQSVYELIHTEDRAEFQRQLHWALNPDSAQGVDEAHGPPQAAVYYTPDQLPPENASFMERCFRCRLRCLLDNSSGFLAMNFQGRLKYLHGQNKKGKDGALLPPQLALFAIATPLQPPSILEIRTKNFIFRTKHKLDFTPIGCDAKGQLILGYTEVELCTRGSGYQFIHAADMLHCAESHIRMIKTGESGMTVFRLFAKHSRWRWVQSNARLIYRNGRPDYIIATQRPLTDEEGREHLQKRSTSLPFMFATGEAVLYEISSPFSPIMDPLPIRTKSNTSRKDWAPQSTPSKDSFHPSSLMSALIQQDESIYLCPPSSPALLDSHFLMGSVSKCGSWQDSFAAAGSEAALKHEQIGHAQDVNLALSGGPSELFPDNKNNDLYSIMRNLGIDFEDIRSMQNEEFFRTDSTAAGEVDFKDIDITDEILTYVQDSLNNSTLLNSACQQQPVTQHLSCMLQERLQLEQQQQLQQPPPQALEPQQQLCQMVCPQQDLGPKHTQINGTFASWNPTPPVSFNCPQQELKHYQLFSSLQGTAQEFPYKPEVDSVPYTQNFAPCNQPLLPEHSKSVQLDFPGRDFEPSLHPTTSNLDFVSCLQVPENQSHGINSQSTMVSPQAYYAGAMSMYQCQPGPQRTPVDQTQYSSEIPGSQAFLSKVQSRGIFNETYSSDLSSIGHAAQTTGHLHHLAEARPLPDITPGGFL
# Procedure: (§1) Examples were tested in selected biological assays one or more times. When tested more than once, data are reported as either average values or as median values, wherein • the average value, also referred to as the arithmetic mean value, represents the sum of the values obtained divided by the number of times tested, and • the median value represents the middle number of the group of values when ranked in ascending or descending order. If the number of values in the data set is odd, the median is the middle value. If the number of values in the data set is even, the median is the arithmetic mean of the two middle values.
# Transactivation Assay in Mouse Cell Line (In Vitro Assay 2)
# (§2) Transactivation assay was carried out in Hepa 1c1c7 cells (ATCC #CRL-2026) endogenously expressing AHR. In addition the cells were stably transfected with an AHR inducible firefly luciferase reporter gene construct that carried AHR-binding sites (DRE) in its promoter. Kynurenic acid is an endogenous AHR activating ligand and was used to prestimulate test cells prior to testing the antagonistic properties of compounds.
# In Vitro Assay 2: Antagonism in Mouse Cell Line
# Firefly luciferase activity was determined by the SteadyGlo Luciferase Assay System (Promega, #E2550).
# [2] = biological target: T2, Human AhR (Homo sapiens, UniProt P35869); test: Transactivation assay in human cell line (in vitro assay 1): antagonism; format: cell-based; details: U87 glioblastoma cells, AHR inducible firefly luciferase reporter (DRE), 150 μM kynurenic acid, 20 hours
# T2 construct: host or cells: U87 glioblastoma cells, stably transfected with a DRE firefly luciferase reporter and a constitutive renilla reporter
# T2 sequence (P35869 11-848): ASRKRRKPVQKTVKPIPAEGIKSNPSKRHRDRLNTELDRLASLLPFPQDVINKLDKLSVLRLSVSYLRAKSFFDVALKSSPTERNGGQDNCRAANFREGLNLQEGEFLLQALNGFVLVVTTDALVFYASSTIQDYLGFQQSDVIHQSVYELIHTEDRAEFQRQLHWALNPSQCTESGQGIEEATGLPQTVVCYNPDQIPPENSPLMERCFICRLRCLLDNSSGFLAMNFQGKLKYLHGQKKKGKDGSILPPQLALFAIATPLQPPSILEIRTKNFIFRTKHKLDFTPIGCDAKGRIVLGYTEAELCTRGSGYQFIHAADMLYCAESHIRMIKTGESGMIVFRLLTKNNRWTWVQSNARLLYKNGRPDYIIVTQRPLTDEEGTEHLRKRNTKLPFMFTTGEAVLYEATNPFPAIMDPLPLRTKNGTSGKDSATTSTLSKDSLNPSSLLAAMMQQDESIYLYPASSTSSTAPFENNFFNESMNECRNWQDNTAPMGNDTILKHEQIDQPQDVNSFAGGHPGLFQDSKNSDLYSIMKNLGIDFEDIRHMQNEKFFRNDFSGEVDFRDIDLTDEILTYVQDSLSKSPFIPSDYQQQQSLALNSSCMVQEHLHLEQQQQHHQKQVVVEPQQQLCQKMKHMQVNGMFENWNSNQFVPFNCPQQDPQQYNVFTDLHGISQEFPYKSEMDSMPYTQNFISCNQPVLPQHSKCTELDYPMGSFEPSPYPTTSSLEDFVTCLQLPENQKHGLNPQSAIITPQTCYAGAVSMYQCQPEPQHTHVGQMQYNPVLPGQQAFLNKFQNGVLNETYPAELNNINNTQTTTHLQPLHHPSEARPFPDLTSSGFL
# Procedure: as §1
# Transactivation Assay in Human Cell Line (In Vitro Assay 1)
# as §2, with “U87 glioblastoma” for “Hepa 1c1c7”, “(ATCC)” for “(ATCC #CRL-2026)”, “its promoter and a renilla reporter gene construct with constitutively active” for “its”
# In Vitro Assay 1: Antagonism in Human Cell Line
# Firefly luciferase and Renilla activity was determined by the DualGlo Luciferase Assay System (Promega, #2920). Renilla activity was used to assess toxic effects of compounds.
Compound,IC50 [1],IC50 [2] [nM]
"C[C@@H](CO)NC(=O)c1cc(-c2cccc(F)c2)nc(-c2ccc(Cl)cc2)n1 [Example 10, 2-(4-Chlorophenyl)-6-(3-fluorophenyl)-N-[(2S)-1-hydroxypropan-2-yl]pyrimidine-4-carboxamide]",23.8 nM,35.3
"C[C@@H](CO)NC(=O)c1cc(-c2cccc(F)c2)nc(-c2ccc(OC(F)(F)F)cc2)n1 [Example 11, 6-(3-Fluorophenyl)-N-[(2S)-1-hydroxypropan-2-yl]-2-[4-(trifluoromethoxy)phenyl]pyrimidine-4-carboxamide]",11.5 nM,41.1
"C[C@@H](CO)NC(=O)c1cc(-c2ccc(OC(F)(F)F)cc2)nc(-c2ccc(OC(F)(F)F)cc2)n1 [Example 12, N-[(2S)-1-hydroxypropan-2-yl]-2,6-bis[4-(trifluoromethoxy)phenyl]pyrimidine-4-carboxamide]",> 20000 nM and 17900 nM,> 20000
"CC(C)(O)CNC(=O)c1cc(-c2ccc(OC(F)(F)F)cc2)nc(-c2ccc(Cl)cc2)n1 [Example 14, 2-(4-chlorophenyl)-N-(2-hydroxy-2-methylpropyl)-6-[4-(trifluoromethoxy)phenyl]pyrimidine-4-carboxamide]",148 nM,234
"COc1ccc(-c2nc(C(=O)NCC(C)(C)O)cc(-c3ccc(OC(F)(F)F)cc3)n2)cc1 [Example 15, N-(2-hydroxy-2-methylpropyl)-2-(4-methoxyphenyl)-6-[4-(trifluoromethoxy)phenyl]pyrimidine-4-carboxamide]",> 20000 nM,390
"C[C@@H](CO)NC(=O)c1cc(-c2ccc(OC(F)(F)F)cc2)nc(-c2ccc(F)cc2)n1 [Example 28, 2-(4-fluorophenyl)-N-[(2S)-1-hydroxypropan-2-yl]-6-[4-(trifluoromethoxy)phenyl]pyrimidine-4-carboxamide]",108 nM,220
"C[C@@H](CO)NC(=O)c1cc(-c2ccc(OC(F)(F)F)cc2)nc(-c2ccc(Cl)cc2)n1 [Example 29, 2-(4-chlorophenyl)-N-[(2S)-1-hydroxypropan-2-yl]-6-[4-(trifluoromethoxy)phenyl]pyrimidine-4-carboxamide]",697 nM,525
"Cc1cc(-c2nc(C(=O)N[C@@H](C)CO)cc(-c3ccc(OC(F)(F)F)cc3)n2)ccc1F [Example 32, 2-(4-fluoro-3-methylphenyl)-N-[(2S)-1-hydroxypropan-2-yl]-6-[4-(trifluoromethoxy)phenyl]pyrimidine-4-carboxamide]",384 nM,167
"C[C@@H](CO)NC(=O)c1cc(-c2ccc(OC(F)(F)F)cc2)nc(-c2ccc(F)c(Cl)c2)n1 [Example 33, 2-(3-chloro-4-fluorophenyl)-N-[(2S)-1-hydroxypropan-2-yl]-6-[4-(trifluoromethoxy)phenyl]pyrimidine-4-carboxamide]",397 nM,98.4
"C[C@@H](CO)NC(=O)c1cc(-c2ccc(OC(F)(F)F)cc2)nc(-c2ccc(C(F)F)cc2)n1 [Example 42, 2-[4-(difluoromethyl)phenyl]-N-[(2S)-1-hydroxypropan-2-yl]-6-[4-(trifluoromethoxy)phenyl]pyrimidine-4-carboxamide]",1100 nM,1100
"CC(C)(O)CNC(=O)c1cc(-c2ccc(Cl)cc2)nc(-c2cc(Cl)cc(Cl)c2)n1 [Example 51, 6-(4-chlorophenyl)-2-(3,5-dichlorophenyl)-N-(2-hydroxy-2-methylpropyl)pyrimidine-4-carboxamide]",3090 nM,101
"CC(C)(O)CNC(=O)c1cc(-c2ccc(Cl)cc2)nc(-c2ccc(C(F)F)cc2)n1 [Example 61, 6-(4-chlorophenyl)-2-[4-(difluoromethyl)phenyl]-N-(2-hydroxy-2-methylpropyl)pyrimidine-4-carboxamide]",7120 nM,> 20000
"COc1ccc(-c2nc(C(=O)N[C@@H](C)CO)cc(-c3ccc(Cl)cc3)n2)cc1 [Example 63, 6-(4-chlorophenyl)-N-[(2S)-1-hydroxypropan-2-yl]-2-(4-methoxyphenyl)pyrimidine-4-carboxamide]",5150 nM,392
"Cc1cc(-c2nc(C(=O)N[C@@H](C)CO)cc(-c3ccc(Cl)cc3)n2)ccc1F [Example 65, 6-(4-chlorophenyl)-2-(4-fluoro-3-methylphenyl)-N-[(2S)-1-hydroxypropan-2-yl]pyrimidine-4-carboxamide]",134 nM,48.5

# Stronger by IC50 [2], values ahead:
IC50 [1],IC50 [2] [nM],Compound
125 nM,11.4,"CC(C)(O)CNC(=O)c1cc(-c2ccc(OC(F)(F)F)cc2)nc(-c2cccc(C#N)c2)n1 [Example 20, 2-(3-cyanophenyl)-N-(2-hydroxy-2-methylpropyl)-6-[4-(trifluoromethoxy)phenyl]pyrimidine-4-carboxamide]"
46.9 nM,26.4,"Cc1cccc(-c2nc(C(=O)N[C@@H](C)CO)cc(-c3ccc(OC(F)(F)F)cc3)n2)c1 [Example 31, N-[(2S)-1-hydroxypropan-2-yl]-2-(3-methylphenyl)-6-[4-(trifluoromethoxy)phenyl]pyrimidine-4-carboxamide]"
180 nM,18.4,"C[C@@H](CO)NC(=O)c1cc(-c2ccc(OC(F)(F)F)cc2)nc(-c2cccc(C#N)c2)n1 [Example 36, 2-(3-cyanophenyl)-N-[(2S)-1-hydroxypropan-2-yl]-6-[4-(trifluoromethoxy)phenyl]pyrimidine-4-carboxamide]"
191 nM,29.5,"Cc1cc(F)cc(-c2nc(C(=O)N[C@@H](C)CO)cc(-c3ccc(OC(F)(F)F)cc3)n2)c1 [Example 41, 2-(3-fluoro-5-methylphenyl)-N-[(2S)-1-hydroxypropan-2-yl]-6-[4-(trifluoromethoxy)phenyl]pyrimidine-4-carboxamide]"
161 nM,24.4,"CC(C)(O)CNC(=O)c1cc(-c2ccc(Cl)cc2)nc(-c2ccc(F)cc2)n1 [Example 45, 6-(4-chlorophenyl)-2-(4-fluorophenyl)-N-(2-hydroxy-2-methylpropyl)pyrimidine-4-carboxamide]"
52.6 nM,7.2,"Cc1cccc(-c2nc(C(=O)N[C@@H](C)CO)cc(-c3ccc(Cl)cc3)n2)c1 [Example 64, 6-(4-chlorophenyl)-N-[(2S)-1-hydroxypropan-2-yl]-2-(3-methylphenyl)pyrimidine-4-carboxamide]"
